Measured values as given in patent publication US8691799B2, “Materials and methods for treatment of cancer and identification of anti-cancer compounds” (priority 2001, dated 2014).

Legend:
Type in all cases: biochemical
Src = Src kinase autophosphorylation assay on immunoprecipitates; details: immunoprecipitates from A549, MDA-MB-468 or v-Src/NIH 3T3 cells
Method: Src Kinase Assay. A549, MDA-MB-468, and v-Src cells were harvested and lysed for 30 min on ice in RIPA150 buffer (10 mM Tris, pH 7.5, 150 mM NaCl, 10% glycerol, 5 mM EDTA, 1% Triton-X-100, 0.1% SDS, 100 μM sodium orthovanadate, 10 μg/ml aprotinin, 10 μg/ml leupeptin, 1 μg/ml antipain). Samples were spun at high speed to clear, then 1000 μg of protein were immunoprecipitated per treatment condition with 2 μg v-Src antibody (Ab-1, Oncogene Research Products, San Diego, Calif.) rocking overnight at 4° C. 25 μl of protein A/G PLUS agarose then was added and rocking continued for 4 hr at 4° C. Samples were spun to collect agarose pellet, and pellet washed three times in RIPA150 buffer, twice in RIPA10 buffer (10 mM Tris, pH 7.5, 10 mM NaCl, 10% glycerol, 5 mM EDTA, 1% Triton-X-100, 0.1% SDS, 100 μM sodium orthovanadate 10 μg/ml aprotinin, 10 μg/ml leupeptin, 1 μg/ml antipain), and three times in 40 mM Tris, pH 7.4. Pellet was then resuspended in 30 μl kinase reaction buffer (20 mM Tris, pH 7.4, 5 mM MgCl2) containing 10 μCi γ-[^32P]ATP. Inhibitors were preincubated for several minutes before the addition of the ATP. Kinase reactions were carried out at room temperature for 15 min. Reaction was stopped with the addition of 2×SDS-PAGE sample buffer. Samples were boiled and run on 10% SDS-PAGE gels. Autophosphorylation results were visualized by autoradiography.

JAK1 = test: JAK kinase autophosphorylation assay on immunoprecipitates (JAK1); details: immunoprecipitates from MDA-MB-468 or v-Src/NIH 3T3 cells; AG490 100 μM, PD180970 2 μM
Method: (§1) JAK Kinase Assays. A549, MDA-MB-468, and v-Src transformed NIH 3T3 cells were harvested, washed three times in PBS-V (10 mM sodium phosphate, pH 7.4, 137 mM NaCl, 1 mM sodium orthovanadate) then lysed for 30 min on ice in JAK kinase lysis buffer (25 mM Hepes, pH 7.4, 0.1% Triton-X-100, 0.5 mM DTT, 1 mM sodium orthovanadate, 1 mM PMSF, 10 μg/ml aprotinin, 10 μg/ml leupeptin). Samples were spun at high speed to clear, and 800-1000 μg of protein was immunoprecipitated per treatment condition with 50 ng of either JAK1 or JAK2 antibody (Santa Cruz Biotechnology) rocking overnight at 4° C. 25 μl of protein A/G PLUS agarose then was added and rocking continued for 1 hr at 4° C. Samples were spun to collect agarose pellet, and pellet washed twice in wash buffer (50 mM Hepes, pH 7.4, 0.1% Triton-X-100, 0.5 mM DTT, 150 mM NaCl) and once in phosphorylation buffer (50 mM Hepes, pH 7.4, 0.1% Triton-X-100, 0.5 mM DTI, 6.25 mM manganese chloride, 100 mM NaCl). Kinase reactions were performed at 30° C. for 15 min in a final volume of 100 μl of phosphorylation buffer. Samples were pretreated with DMSO control, JSI-124, and control compounds (AG490, 100 μM, and […], 2 μM) before addition of 20 μCi/sample y-[^32P]ATP. Reaction was halted using stop buffer (wash buffer plus 10 mM EDTA), samples spun to collect pellet, then pellet washed once with stop buffer and twice with wash buffer. Samples were then placed in 2×SDS-PAGE sample buffer, boiled at 100° C., and run on 8% SDS-PAGE gels to separate proteins. Autophosphorylation results were visualized by autoradiography.

JAK2 = target: T1, JAK2 (Homo sapiens, UniProt O60674); test: JAK kinase autophosphorylation assay on immunoprecipitates (JAK2); details: immunoprecipitates from A549, MDA-MB-468 or v-Src/NIH 3T3 cells; AG490 100 μM, PD180970 2 μM
T1 construct: Src, JAK1, and JAK2 were immunoprecipitated from either A549, MDA-MB-468, or v-Src/NIH 3T3 cells; endogenous in cells; host or cells: A549, MDA-MB-468, v-Src transformed NIH 3T3 (immunoprecipitates)
T1 sequence (O60674 whole entry): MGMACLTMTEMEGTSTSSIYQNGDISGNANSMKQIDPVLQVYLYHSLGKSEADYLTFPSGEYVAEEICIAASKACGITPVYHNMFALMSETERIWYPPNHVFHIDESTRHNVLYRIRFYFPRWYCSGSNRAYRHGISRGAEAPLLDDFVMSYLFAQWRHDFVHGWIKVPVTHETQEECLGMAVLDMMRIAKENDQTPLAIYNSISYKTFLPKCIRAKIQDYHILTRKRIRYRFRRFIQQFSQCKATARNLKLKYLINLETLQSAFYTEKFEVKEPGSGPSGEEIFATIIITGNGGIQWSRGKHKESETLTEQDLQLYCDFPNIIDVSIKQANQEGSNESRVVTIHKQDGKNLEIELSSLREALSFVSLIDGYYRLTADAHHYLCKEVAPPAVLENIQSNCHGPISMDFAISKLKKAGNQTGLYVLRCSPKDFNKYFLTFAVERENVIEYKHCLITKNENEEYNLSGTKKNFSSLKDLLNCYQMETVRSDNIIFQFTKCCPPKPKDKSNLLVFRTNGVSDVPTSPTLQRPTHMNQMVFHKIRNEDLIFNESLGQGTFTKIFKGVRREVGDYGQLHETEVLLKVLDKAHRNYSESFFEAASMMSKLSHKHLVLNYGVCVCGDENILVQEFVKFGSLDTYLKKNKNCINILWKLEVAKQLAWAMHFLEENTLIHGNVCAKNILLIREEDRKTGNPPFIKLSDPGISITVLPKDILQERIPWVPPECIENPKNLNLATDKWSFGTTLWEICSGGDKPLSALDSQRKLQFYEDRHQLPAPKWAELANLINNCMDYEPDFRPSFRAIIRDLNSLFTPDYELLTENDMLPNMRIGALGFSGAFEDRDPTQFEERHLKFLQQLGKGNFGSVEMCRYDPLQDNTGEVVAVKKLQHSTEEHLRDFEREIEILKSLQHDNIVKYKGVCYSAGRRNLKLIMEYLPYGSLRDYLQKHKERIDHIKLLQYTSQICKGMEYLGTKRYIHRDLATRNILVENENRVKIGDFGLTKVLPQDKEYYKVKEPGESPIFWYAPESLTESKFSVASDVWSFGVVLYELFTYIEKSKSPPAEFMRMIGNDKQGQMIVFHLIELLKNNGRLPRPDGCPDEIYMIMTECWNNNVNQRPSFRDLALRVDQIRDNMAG
Method: as §1

| SMILES | Src kinase activity (autophosphorylation) in vitro (Src) | JAK1 kinase activity (autophosphorylation) in vitro (JAK1) | JAK2 kinase activity (autophosphorylation) in vitro (JAK2) |
| --- | --- | --- | --- |
| N#C/C(=C/c1ccc(O)c(O)c1)C(=O)NCc1ccccc1 [AG490] | not Src kinase activities | inhibited JAK1 and JAK2 | inhibited JAK1 and JAK2 |
| Cc1cc(Nc2ncc3cc(-c4c(Cl)cccc4Cl)c(=O)n(C)c3n2)ccc1F [PD180970] | inhibits Src | not JAK1 or JAK2 activities | not JAK1 or JAK2 activities |
